We go through one molecule from patent publication US20050043333A1, “Quinazolinone derivative” (Fujisawa Pharmaceutical Co., Ltd, priority 2001, published 2005).

The experiment concerns the target recombinant human PARP (Homo sapiens, UniProt P09874). Put plainly: PARP Inhibitory Activity (In Vitro Assay). The format is biochemical. To be noted: 32P-NAD, 0.05 mM NAD, activated DNA, 15 minutes at room temperature. Here is the method:
Incubation was for 15 minutes at a room temperature and the reaction was stopped by the addition of 200 μl of ice-cold 20% trichloroacetic acid followed by rapid filtration through GF/B filters. The filters were treated with scintillation fluid and acid-insoluble counts were measured for quantification of unit activity.

Sequence of recombinant human PARP (P09874 whole entry): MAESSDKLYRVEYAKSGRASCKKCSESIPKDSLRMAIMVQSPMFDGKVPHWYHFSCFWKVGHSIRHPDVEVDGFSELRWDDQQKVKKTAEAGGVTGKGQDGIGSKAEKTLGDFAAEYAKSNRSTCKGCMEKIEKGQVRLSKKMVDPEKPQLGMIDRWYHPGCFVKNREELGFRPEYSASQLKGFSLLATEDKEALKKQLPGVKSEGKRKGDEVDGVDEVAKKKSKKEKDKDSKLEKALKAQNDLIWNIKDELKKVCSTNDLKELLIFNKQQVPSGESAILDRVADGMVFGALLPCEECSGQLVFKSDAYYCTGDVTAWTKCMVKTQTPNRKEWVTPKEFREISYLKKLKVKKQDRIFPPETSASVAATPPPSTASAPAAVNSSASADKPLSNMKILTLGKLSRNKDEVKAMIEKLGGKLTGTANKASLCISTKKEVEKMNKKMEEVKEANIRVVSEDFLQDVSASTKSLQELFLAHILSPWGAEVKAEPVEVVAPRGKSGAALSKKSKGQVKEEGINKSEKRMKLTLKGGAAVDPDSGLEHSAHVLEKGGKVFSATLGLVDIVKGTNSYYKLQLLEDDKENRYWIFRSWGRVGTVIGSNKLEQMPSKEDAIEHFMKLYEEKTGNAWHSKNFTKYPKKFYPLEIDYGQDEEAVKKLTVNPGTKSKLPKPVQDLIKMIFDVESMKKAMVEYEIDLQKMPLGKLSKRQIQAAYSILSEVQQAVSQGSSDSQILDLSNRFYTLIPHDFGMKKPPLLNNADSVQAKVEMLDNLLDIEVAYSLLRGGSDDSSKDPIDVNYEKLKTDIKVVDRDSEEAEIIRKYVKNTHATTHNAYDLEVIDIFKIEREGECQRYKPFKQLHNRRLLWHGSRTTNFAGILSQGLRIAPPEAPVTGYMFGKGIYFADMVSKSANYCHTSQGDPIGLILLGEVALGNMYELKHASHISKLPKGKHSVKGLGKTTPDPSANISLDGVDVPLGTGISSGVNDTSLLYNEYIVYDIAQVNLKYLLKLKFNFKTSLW

Take `O=c1[nH]c(C2=CC(N3CC=C(c4ccccc4)CC3)CC2)nc2ccccc12` (stereo not shown) [Compound A, 2-[3-(4-phenyl-3,6-dihydro-1(2H)-pyridinyl)-1-cyclopenten-1-y 1]-4(3H)-quinazolinone]: the IC50 is < 500 nM.

For orientation: IC50 means the concentration that gives 50% inhibition.
